The values that follow come from US11076595B2, “1-(n,n-disubstituted carbamoyl) 4-(substituted sulfonyl)triazolin-5-one derivative, 4-(n,n-disubstituted carbamoyl) 1-(substituted sulfonyl)triazolin-5-one derivative, and herbicide containing said derivative as active ingredient” (HOKKO CHEMICAL INDUSTRY CO., LTD., priority 2017, dated 2021).

What all share (type): in vivo
Assay [1] deals with Echinochloa crus-galli. The assay can be described thus: Test Example 11: herbicidal effect test by soil treatment in paddy field. The settings on record: 120 g/10a active ingredient, 14 days after treatment. A digest of the protocol: (§1)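 Pre-emergence flooded-paddy test: the water-diluted emulsifiable concentrate, 120 g active ingredient per 10 are, was dripped into pots immediately after seeding, with water held at about 3 cm. Two replicate pots per rate; 14 days after treatment, plant dry weight versus untreated pots gave the weed suppression rate.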

For assay [2], the system named is Lindernia pyxidaria. Described as above. The settings on record: 120 g/10a active ingredient, 14 days after treatment. A digest of the protocol: as §1
For assay [3], the system named is Monochoria vaginalis. The assay is described as above. The settings on record: 120 g/10a active ingredient, 14 days after treatment. Put shortly:
as §1

Assay [4] concerns Scirpus juncoides. Described as above. The settings on record: 120 g/10a active ingredient, 14 days after treatment. A digest of the protocol:
as §1

The subject of assay [5] is Echinochloa crus-galli. The assay can be described thus: Test Example 12: herbicidal effect test by treatment during growing period in paddy field. To be noted: 120 g/10a; treatment seven days after sowing in flooded paddy pot; assessed 14 days after treatment. Put shortly: (§2)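 Seeds (30 per species) are sown shallowly into fertilized, puddled paddy soil kept under ~3 cm of water in a greenhouse. One week later, compound formulated as an emulsifiable concentrate is applied dropwise to the water at 120 g a.i./10 are. After 14 days, dry weights give percent suppression against untreated controls.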

Assay [6] relates to Lindernia pyxidaria. The assay is described as above. To be noted: 120 g/10a; treatment seven days after sowing in flooded paddy pot; assessed 14 days after treatment. Put shortly: as §2
Assay [7] relates to Monochoria vaginalis. The assay is described as above. The settings on record: 120 g/10a; treatment seven days after sowing in flooded paddy pot; assessed 14 days after treatment. A digest of the protocol: as §2
In assay [8] the test system is Scirpus juncoides. The description is as above. To be noted: 120 g/10a; treatment seven days after sowing in flooded paddy pot; assessed 14 days after treatment. A digest of the protocol:
as §2

Assay [9] relates to Amaranthus viridis. The assay can be described thus: Test Example 13: herbicidal effect test by soil treatment in upland field. The settings on record: 120 g/10a, 14 days after treatment. A digest of the protocol: (§3)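 Weed suppression rate (%) computed at 14 days as 1 minus treated/untreated mean dry weight, times 100, with two replicates per concentration. Emulsifiable concentrate diluted in water was applied at 120 g a.i. per 10 are (100 liter per 10 are) onto soil surface one day post-sowing of 20 seeds each in 36 cm^2 pots of alluvial soil.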

Assay [10] deals with Chenopodium album. The assay is described as above. The settings on record: 120 g/10a, 14 days after treatment. A digest of the protocol:
as §3

The subject of assay [11] is Echinochloa crus-galli. The description is as above. The settings on record: 120 g/10a, 14 days after treatment. A digest of the protocol: as §3
Assay [12] relates to crabgrass. Described as above. To be noted: 120 g/10a, 14 days after treatment. Put shortly:
as §3

Assay [13] relates to Chenopodium album. Briefly: Test Example 14: herbicidal effect test by foliage treatment in upland field. The settings on record: 7 days after sowing, 120 g/10a, 14 days after treatment. Put shortly: (§4)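 Weeds sown 20 seeds each in alluvial field soil; 7 days after sowing, water-diluted emulsifiable concentrate sprayed at 100 L per 10 are, 120 g active ingredient per 10 are. Suppression rate (%) from dry weight versus untreated plots at 14 days, two replicates.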

In assay [14] the test system is crabgrass. The description is as above. To be noted: 7 days after sowing, 120 g/10a, 14 days after treatment. A digest of the protocol: as §4
Assay [15] relates to Amaranthus viridis. The description is as above. To be noted: 7 days after sowing, 120 g/10a, 14 days after treatment. A digest of the protocol: as §4
The test system of assay [16] is Echinochloa crus-galli. Described as above. The settings on record: 7 days after sowing, 120 g/10a, 14 days after treatment. Put shortly: as §4

For `CC(C)N(C(=O)n1cnn(S(C)(=O)=O)c1=O)c1c(F)cccc1F` [Compound 11-14], the “Weed suppression rate (%) Echinochloa crus-galli” value in assay [1] and in assay [5] was 100% each time. In addition, the “Weed suppression rate (%) Lindemia pyxidaria” value in [2] was 100%; in assay [6] it was 80%. Besides, the “Weed suppression rate (%) Monochoria vaginalis” value in assay [3] and in [7] was 80% in each case. Also, the “Weed suppression rate (%) Scirpus juncoides” value in assay [4] is reported as 90%; in assay [8] it was 100%. The “herbicidal effect, Amaranthus viridis” value amounted to 70% in assay [9] and 30% in [15]. The “herbicidal effect, Chenopodium album” value in [10] is given as 60%; in assay [13], 30%. The “herbicidal effect, Echinochloa crus-galli” value in assay [11] and in [16] was 100% each time. Further, the “herbicidal effect, Crabgrass” value in assay [12] and in assay [14] was 100% throughout.

On to `CCS(=O)(=O)n1ncn(C(=O)N(c2cccc(F)c2F)C(C)C)c1=O` [Compound 11-1148], for which the “Weed suppression rate (%) Echinochloa crus-galli” value in [1] and in assay [5] was 100% in each case. Further, the “Weed suppression rate (%) Lindemia pyxidaria” value in assay [2] was 100%; in assay [6], 90%. Moreover, the “Weed suppression rate (%) Monochoria vaginalis” value in assay [3] and in assay [7] was 90% each time. For the same compound, the “Weed suppression rate (%) Scirpus juncoides” value in assay [4] and in [8] was 100% throughout. Besides, the results for the “herbicidal effect, Amaranthus viridis” value in assay [9] and in assay [15] were 100% and 70%, respectively. The “herbicidal effect, Chenopodium album” value in assay [10] is 90%; in [13], 80%. Also, the “herbicidal effect, Echinochloa crus-galli” value in assay [11] and in assay [16] was 100% each time. The “herbicidal effect, Crabgrass” value in assay [12] and in assay [14] was 100% in each case.

Turning to `CC(C)N(C(=O)n1cnn(S(=O)(=O)C2CC2)c1=O)c1ccc(Cl)cn1` [Compound 11-233], the “Weed suppression rate (%) Echinochloa crus-galli” value in [1] and in assay [5] was 100% each time. The “Weed suppression rate (%) Lindemia pyxidaria” value worked out at 100% in [2] and 90% in assay [6]. Further, the “Weed suppression rate (%) Monochoria vaginalis” value in assay [3] and in [7] was 90% each time. For the same compound, the “Weed suppression rate (%) Scirpus juncoides” value in [4] and in [8] was 90% throughout. Further, the “herbicidal effect, Amaranthus viridis” value turned out to be 80% in assay [9] and 40% in assay [15]. The “herbicidal effect, Chenopodium album” value in assay [10] and in [13] was 50% throughout. Also, the “herbicidal effect, Echinochloa crus-galli” value in assay [11] stood at 80%; in assay [16], 90%. For the same compound, the “herbicidal effect, Crabgrass” value in [12] and in assay [14] was 90% each time.

Regarding `CC(C)N(C(=O)n1cnn(S(=O)(=O)C2CC2)c1=O)c1ccccc1` [Compound 11-159], the “Weed suppression rate (%) Echinochloa crus-galli” value in assay [1] and in [5] was 90% each time. In addition, the “Weed suppression rate (%) Lindemia pyxidaria” value is on record as 80% in assay [2] and 70% in [6]. Further, the “Weed suppression rate (%) Monochoria vaginalis” value in [3] is 80%; in assay [7], 90%. The “Weed suppression rate (%) Scirpus juncoides” value turned out to be 90% in assay [4] and 80% in assay [8]. The “herbicidal effect, Amaranthus viridis” value in assay [9] and in assay [15] was 90% each time. Besides, the “herbicidal effect, Chenopodium album” value in assay [10] and in assay [13] was 80% throughout. The “herbicidal effect, Echinochloa crus-galli” value in assay [11] and in assay [16] was 80% in each case. The “herbicidal effect, Crabgrass” value in assay [12] and in assay [14] was 90% throughout.

As for `CC(C)N(C(=O)n1cnn(S(=O)(=O)C(C)C)c1=O)c1c(F)c(F)cc(F)c1F` [Compound 11-64], the “Weed suppression rate (%) Echinochloa crus-galli” value in assay [1] and in assay [5] was 100% each time. Besides, the “Weed suppression rate (%) Lindemia pyxidaria” value in [2] was 100%; in assay [6], 80%. The “Weed suppression rate (%) Monochoria vaginalis” value in assay [3] and in assay [7] was 90% in each case. The “Weed suppression rate (%) Scirpus juncoides” value in assay [4] and in assay [8] was 100% throughout. For the same compound, the “herbicidal effect, Amaranthus viridis” value in [9] and in [15] was 60% each time. The “herbicidal effect, Chenopodium album” value in assay [10] and in assay [13] was 60% in each case. Moreover, the “herbicidal effect, Echinochloa crus-galli” value is given as 100% in [11] and 90% in assay [16]. The “herbicidal effect, Crabgrass” value in [12] and in [14] was 100% each time.

`CC(C)N(C(=O)n1cnn(S(=O)(=O)c2ccccc2)c1=O)c1ccc(F)cc1F` [Compound 11-367]: the “Weed suppression rate (%) Echinochloa crus-galli” value in assay [1] and in assay [5] was 100% in each case. Besides, the “Weed suppression rate (%) Lindemia pyxidaria” value in assay [2] was found to be 100%; in [6] it was 90%. The “Weed suppression rate (%) Monochoria vaginalis” value in assay [3] and in [7] was 90% each time. Further, the “Weed suppression rate (%) Scirpus juncoides” value in assay [4] and in [8] was 90% throughout. Besides, the “herbicidal effect, Amaranthus viridis” value in assay [9] and in assay [15] was 40% each time. Moreover, the “herbicidal effect, Chenopodium album” value in assay [10] and in assay [13] was 40% in each case. The “herbicidal effect, Echinochloa crus-galli” value in [11] is listed as 100%; in assay [16], 90%. Also, the entries for the “herbicidal effect, Crabgrass” value in assay [12] and in assay [14] were 100% and 90%, respectively.

With `CCN(C)S(=O)(=O)n1ncn(C(=O)N(c2ccc(F)cc2F)C(C)C)c1=O` [Compound 11-1098], the “Weed suppression rate (%) Echinochloa crus-galli” value in assay [1] and in assay [5] was 100% throughout. The “Weed suppression rate (%) Lindemia pyxidaria” value in [2] was 100%; in assay [6], 70%. The “Weed suppression rate (%) Monochoria vaginalis” value in assay [3] and in assay [7] was 80% throughout. Further, the “Weed suppression rate (%) Scirpus juncoides” value is 100% in assay [4] and 70% in [8]. The “herbicidal effect, Amaranthus viridis” value in assay [9] and in [15] was 90% throughout. The “herbicidal effect, Chenopodium album” value in [10] was found to be 100%; in assay [13], 80%. Also, the “herbicidal effect, Echinochloa crus-galli” value in assay [11] stood at 100%; in assay [16], 80%. For the same compound, the “herbicidal effect, Crabgrass” value in assay [12] stood at 100%; in [14], 90%.

With `Cc1ccc(N(C(=O)n2cnn(S(C)(=O)=O)c2=O)C(C)C)c(F)c1` [Compound 11-26], the “Weed suppression rate (%) Echinochloa crus-galli” value in assay [1] and in assay [5] was 90% throughout. The “Weed suppression rate (%) Lindemia pyxidaria” value in assay [2] and in [6] was 80% in each case. The “Weed suppression rate (%) Monochoria vaginalis” value in assay [3] and in [7] was 80% in each case. In addition, the “Weed suppression rate (%) Scirpus juncoides” value in [4] and in assay [8] was 90% each time. Further, the “herbicidal effect, Amaranthus viridis” value in [9] and in [15] was 90% in each case. Moreover, the “herbicidal effect, Chenopodium album” value in assay [10] and in [13] was 80% in each case. Besides, the “herbicidal effect, Echinochloa crus-galli” value in assay [11] and in assay [16] was 80% in each case. In addition, the “herbicidal effect, Crabgrass” value in assay [12] and in assay [14] was 90% in each case.
